Data on 2 molecules can be found in article PMC10081574, “Evaluation of Antiviral Activity of Gemcitabine Derivatives against Influenza Virus and Severe Acute Respiratory Syndrome Coronavirus 2” (ACS Infectious Diseases, 2023).

As a reminder, the EC50 is the concentration that produces a half-maximal response. As usually defined, the viability is the share of living cells, or the viability signal relative to a control. Usually EC90 stands for the concentration at which the effect reaches the 90% level. The term solubility denotes the concentration that dissolves in the medium under given conditions. A high value points to much dissolved substance.

One series concerns B/Lee/40. The series can be described thus: CPE reduction antiviral assay in Lee-infected MDCK cells (MTT). The settings on record: for EC50: viability of infected cells to 50%. In kind it is cell-based, influenza B virus.
Series [1] has as its system Caco-2 human colorectal adenocarcinoma cells. Set-up: method as in PMID 35310327. The settings on record: 0.1 μM to 1 mM, 3 day incubation; cited from earlier work.
In series [2] the test system is A/Hong Kong/8/68 (H3N2). In words: microbe, parasite or virus in culture. The following applies: Influenza A virus, H3N2, MDCK, 72 h; for EC50: read-out: EC50 HK.
Series [3] can be described thus: Cytotoxicity to mock-infected MDCK cells (MTT). The settings on record: dog, mock-infected MDCK cells.
For series [4], the system named is MDCK cells. The series can be described thus: Cytotoxicity to mock-infected MDCK cells (MTT). The settings on record: for CC10: mock-infected MDCK cells, day 3, MTT, concentration inhibiting cell viability by 10%.
For series [5] the following is noted: clinical study; cited from earlier work.
In series [6] the test system is A/Hong Kong/8/68 (H3N2). The following applies: for SI50 HK: ratio of CC50 to EC50.
The test system of series [7] is A/Puerto Rico/8/34 (H1N1). The series can be described thus: microbe, parasite or virus in culture. The following applies: Influenza A virus, 72 h; for EC50: read-out: EC50 PR8.
In series [8] the test system is influenza A and B viruses. In words: CPE reduction antiviral assay, values summarised over influenza strains PR8, HK and Lee. In kind it is cell-based, influenza virus. The following applies: for EC90: read-out: EC90 against influenza viruses.
For series [9], the target named is polymerase activity of influenza A virus PR8 (Influenza A virus, UniProt P03431). In kind it is cell-based. The following applies: 11, 33 and 100 μM, 72 h time course.
Series [10] relates to A/Puerto Rico/8/34 (H1N1).
Series [11] concerns PR8 virus. Type of series: cell-based, influenza A virus.
For series [12] the following is noted: male, BALB/c, mouse, in vivo, ip, 5 mg/kg, 30 min.
The test system of series [13] is PR8 virus. In kind it is cell-based, influenza A virus. This is another data set of the same source.
The subject of another series is SARS-CoV-2. The series can be described thus: Anti-SARS-CoV-2 immunofluorescence assay (anti-S) in Calu-3 cells. In kind it is cell-based.
The test system of series [14] is MDCK cells. The settings on record: dog, 3 days.
Another series is described as follows: physchem. The settings on record: aqueous buffer.
Series [15] in a line: in vitro. The following applies: human.
Another series relates to Calu-3 cells. The series can be described thus: Cytotoxicity to mock-infected Calu-3 cells (MTT). The following applies: 100 μM.
Series [16] is described as follows: in vitro. The following applies: dog.
For series [17] the following is noted: mouse, microsomes.

Entries after “also recorded” stand apart in the source; their conditions may differ. Read-outs that look alike come from different tables or passages of the source.

With `Nc1ccn([C@@H]2O[C@H](CO)[C@@H](O)C2(F)F)c(=O)n1` [Gemcitabine, 2′,2′-difluoro-2′-deoxycytidine], the EC50 in the series on B/Lee/40 (Influenza B virus, MDCK, 72 h, read-out: EC50 Lee, MDCK, MOI 0.001, day 3) was 0.7 µM; with B/Lee/40 (MDCK, MOI 0.001, day 3, read-out: EC50 Lee), 0.4 µM; in the series with A/Hong Kong/8/68 (H3N2) [2], 0.3 µM; in series [7] (H1N1 / PR8, MDCK) it was 0.6 µM; in [8] (Influenza A virus, span over PR8, HK and Lee, MDCK, read-out: EC50 against influenza viruses), 0.3 to 0.7 µM. For the same molecule, in series [1], the “suppression of Caco-2 cancer cell proliferation” value is 40–50%. Moreover, the viability at 10 µM in the series with A/Hong Kong/8/68 (H3N2) [2] (read-out: viability of HK-infected cells in library screening) is above 50%; in [7] (H1N1|PR8, MDCK, read-out: viability of PR8-infected cells in library screening), above 50%. Besides, the CC50 at 3 days in [3] is above 300 µM. Further, the “cytotoxicity at a higher concentration” value in the series on MDCK cells [4] (100 μM, MDCK, data not shown) was “severe cytotoxicity”. Also, the “concentrations at which MDCK cell viability gradually decreased” value in the series with MDCK cells [4] (incubation of MDCK cells) is listed as “above 3.3 μM”. Also, the CC10 with MDCK cells [4] was determined as 5.0 ± 0.3 µM; in the series with MDCK cells [4] (listed as gemcitabine) it was 5.0 µM. Also, in series [5], the “toxicity after oral administration” value is listed as “liver necrosis-mediated lethal hepatotoxicity”. The “SI50 HK” value with A/Hong Kong/8/68 (H3N2) [6] was above 883.5. In addition, the “recovery of viability of virus-infected cells with 90% cutoff” value in series [8] (MDCK, day 3) is listed as “failed to reach cell viability above 90%; also recorded: failed to recover over 90% cell viability”. In addition, the “SI50 against influenza viruses” value in series [8] (over PR8, HK and Lee, CC50/EC50) is “above 464.8”.

`Nc1ccc(C(=O)Nc2ccn([C@@H]3O[C@H](CO)[C@@H](O)C3(F)F)c(=O)n2)nc1` [Compound 2h]: the “inhibition of viral polymerase activity (EGFP expression)” value in series [9] is on record as “potently inhibited viral polymerase activity in a dose-dependent manner”. The EC90 in the series on B/Lee/40 (Influenza B virus, 72 h, MDCK, MOI 0.001, day 3, viability of infected cells to 90%, read-out: EC90 Lee) was 15.9 ± 1.7 µM; in the series with A/Hong Kong/8/68 (H3N2) [2] (read-out: EC90 HK), 11.4 ± 0.6 µM; in [7] (H1N1 / PR8, MDCK, read-out: EC90 PR8), 12.2 ± 1 µM; in series [8] (Influenza A virus, PR8, MDCK, span over PR8, HK and Lee, MDCK), 10.7 to 34.3 µM; in [8] (span over PR8, HK and Lee, MDCK), 11.4 to 15.9 µM. Besides, the EC50 is 4.1 ± 0.4 µM with B/Lee/40 (Influenza B virus, MDCK, 72 h, MDCK, MOI 0.001, day 3, read-out: EC50 Lee); 5 ± 0.3 µM in the series with A/Hong Kong/8/68 (H3N2) [2]; 0.46 µM with SARS-CoV-2 (Severe acute respiratory syndrome coronavirus 2, 48 h, Calu-3, MOI 0.05, 2 days); 6.4 ± 0.6 µM in [7] (H1N1 / PR8, MDCK). In addition, the “SI90 Lee” value in the series on B/Lee/40 (ratio of CC10 to EC90) was above 18.8. Further, the “SI50 Lee” value in the series with B/Lee/40 (ratio of CC50 to EC50) was above 73.1. Besides, in [10] (ratio of CC10 to EC90), the “SI90 PR8” value is above 24.5. Also, the “SI50 PR8” value in [10] (ratio of CC50 to EC50) is above 47.2. Also, the “reduction of viral RNA copies” value in the series with PR8 virus [11] is “in a dose-dependent manner”. Moreover, in [12], the “share of 2h converted to gemcitabine” value amounted to 17.5%. Also, the “reduction of viral NP protein expression” value in the series with PR8 virus [13] was “in a dose-dependent manner”. Moreover, the “reduction of the viral S protein (immunofluorescence)” value in the series on SARS-CoV-2 (1.2, 3.7, 11.1 and 33.3 μM, 2 days) is reported as “in a dose-dependent manner”. In the series on SARS-CoV-2 (ratio of CC50 to EC50), the “SI SARS-CoV-2” value was above 217.4. In addition, the “reduction of cytotoxicity relative to gemcitabine” value in the series with MDCK cells [14] is given as “over 60 fold”. Further, the solubility in the series “physchem” was at least 2000 µg/mL. Also, the “SI90 HK” value in the series on A/Hong Kong/8/68 (H3N2) [6] (ratio of CC10 to EC90) is recorded as above 26.3. The “SI50 HK” value with A/Hong Kong/8/68 (H3N2) [6] is given as above 59.5. This molecule also gave a CC50 at 2 days in the series “in vitro [15]” above 100 µM. Also, in [8] (over PR8, HK and Lee, CC10/EC90), the “SI90 against influenza viruses” value was above 8.7. In the series with Calu-3 cells, the cell death result is given as “about 20%”. In “in vitro [16]”, this molecule registered a CC50 at 3 days above 300 µM. Also, the viability at 3 days, 300 µM in the series “in vitro [16]” was above 90%. Moreover, the “stability in a microsomal condition in vitro” value in series [17] is listed as “much more stable”.
